Measured values reported in US8952042B2, “FXR (NR1H4) binding and activity modulating compounds” (Phenex Pharmaceuticals AG, priority 2009, dated 2015).

Key:
[1] = Pharmacokinetics in rat after intravenous administration 1 mg/kg; assay type: in vivo, Male Sprague Dawley Rat; settings: rat
Protocol: Compounds were applied perorally by gavage at 5 mg/kg each and by i.v. Injection at 1 mg/kg each to male 12 weeks old C57BI/6J or Sprague Dawley rats and plasma concentrations of the test items were determined by LC-MS/MS after time points as indicated. In the case of Cynomolgus monkeys ([…]), the dose was adjusted to 12 mg/kg p.o., no i.v. injection was given (FIG. 1a, 1b and Table 2).
A solution of 2.5 mg/mL of each test item was produced by diluting them in the vehicle, 0.5% Hydroxypropyl-Methylcellulose (w/v) in 20 mM phosphate buffered saline pH 7.4. The solutions were stirred overnight at room temperature and heated to 40° C. for 10 minutes, resulting in fully homogenous suspension. The application was performed by administrating the solution perorally to the mice, with an application volume of 5 mL/kg. For each time point three mice or rats were used. In case of the Cynomolgus monkeys blood samples were obtained by repeated vein puncture. Blood samples were treated with L1-heparin during collection procedure and stored on ice until centrifugation at 645 g (5 min, 4° C.). Plasma was harvested and kept at −20° C. until being assayed. To 50 μL of plasma sample […] acetonitrile containing an internal standard was added. Samples were vigorously shaken and centrifuged for 10 minutes at 6000 g and 20° C. An aliquot of the particle-free supernatant was transferred to 200 μL sampler vials and subsequently subjected to LC MS/MS for quantification.

[2] = test system: C57BLKS lepr^−/− db/db mice; experiment: Lipid lowering effects in db/db mice; assay type: in vivo, mouse; settings: 3 days of dosing at 2×5 mg/kg/day
Protocol: Compounds were applied perorally by gavage at 2×5 mg/kg each to C57BLKS lepr^−/− db/db mice starting at the age of 12 weeks. Animals have been set on a High-Fat Diet (ssniff EF R/M 12330 with 59% (kcal) fat from Ssniff, Soest, Germany) for two weeks prior to start of gavage. Baseline blood was taken by retroorbital bleeding. Blood samples were treated with L1-heparin during collection procedure and stored on ice until centrifugation at 645 g (5 min, 4° C.). Plasma was harvested and kept at −20° C. until being assayed. Total triglycerides and total cholesterol were measured in a 3 μL aliquot of plasma using commercial kits LabAssay™ Triglyceride (Code No 290-63701) and LabAssay™ Cholesterol (Code No 294-65801) from Wako Diagnostics (Neuss, Germany). […]

[3] = UV photostability, irradiation at 254 nm, 1H NMR; assay type: physicochemical
Protocol: The compounds of interest were dissolved using ethanol and their UV spectrum was analyzed to determine their λmax to establish an irradiation wavelength to be used in the study (see FIG. 2). The best wavelength for testing the UV stability of the —CH═CH— double bond was determined to be 254 nm. Further material of the compounds was then dissolved in deuterated ethanol and the ^1H NMRs (400 MHz) analyzed (T=0). Each sample was then recovered from the NMR tube and subjected to UV irradiation (254 nm) for 4 h, 15 h and 70 h. At the respective timepoints the individual samples were re-analyzed by ^1H NMR and the signal for the —CH═CH— protons evaluated to assess the percent of remaining intact double bond. Other changes in the chemical shift signals were also analyzed for further changes on the overall structure of the molecules.

[4] = according to Akwabi-Ameyaw et al.; cited from earlier work
[5] = attributed to trans-stilbene moiety, Akwabi-Ameyaw et al.; cited from earlier work
[6] = male, Sprague Dawley, plasma, iv, 1 mg/kg i.v.

AUC(0-inf) [1, 6]: 294 ng·h/mL
MRT last [1, 6]: 50.4 min
Tmax [1, 6]: 4.98 min
Vd [1, 6]: 5.98 L/kg
half-life [1, 6]: 73.2 min
concentration at 0.083 hr ([1]; male, Sprague Dawley, plasma, iv, 1 mg/kg i.v., 0.083 hr): 405 ng/mL
concentration at 0.25 hr ([1]; male, Sprague Dawley, plasma, iv, 1 mg/kg i.v., 0.25 hr): 208 ng/mL
concentration at 0.5 hr ([1]; male, Sprague Dawley, plasma, iv, 1 mg/kg i.v., 0.50 hr): 124 ng/mL
concentration at 1 hr ([1]; male, Sprague Dawley, plasma, iv, 1 mg/kg i.v., 1.00 hr): 68.3 ng/mL
concentration at 2 hr ([1]; male, Sprague Dawley, plasma, iv, 1 mg/kg i.v., 2.00 hr): 25 ng/mL
concentration at 4 hr ([1]; male, Sprague Dawley, plasma, iv, 1 mg/kg i.v., 4.00 hr): 15 ng/mL
Cmax ([1]; male, Sprague Dawley, plasma, 1 mg/kg i.v., footnote: Co for Intravenous): 565 ng/mL
AUC(0-t) ([1]; male, Sprague Dawley, plasma, iv, 1 mg/kg, read-out: #AUC(0-8)): 268 ng·h/mL
AUC Extrapolated ([1]; 1 mg/kg i.v.): 9.0%
CI ([1]; 1 mg/kg i.v.): 56.7083 mL/min/kg
behaviour in 1H NMR spectrum after prolonged UV irradiation ([3]; 70 h UV irradiation at 254 nm): major changes
compound still present in the mixture (1H NMR integration) ([3]; 70 h UV irradiation at 254 nm, deuterated ethanol): less than 30%
compound decayed ([3]; after 70 h UV irradiation at 254 nm): 70%
Compound: CC(C)c1onc(-c2c(Cl)cccc2Cl)c1COc1ccc(/C=C/c2cccc(C(=O)O)c2)c(Cl)c1 [GW4064, reference compound]
change in fasting blood glucose against vehicle [2]: −6%
oral bioavailability [4]: low
plasma exposure [4]: low
plasma half life [4]: short
ultraviolet light stability [5]: instability
